# Measured values published in ChEMBL document CHEMBL1201862, “PubChem BioAssay data set” (2004).
# The source made the active and inactive calls.
# Assays:
# [1] = inhibitors of intracellular T. cruzi replication, confirmation, NIH3T3 host cells, beta-gal luminescence (AID 2044); assay type: functional, cell-based;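 further: intracellular parasites grown in NIH/3T3 mouse fibroblasts as host cells; luminescent beta-galactosidase reporter signal from transgenic T. cruzi replicating inside host cells; inhibitors lower the luminescence signal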
# [2] = Luminescence Cell-Based Dose Retest to Confirm Inhibitors of Cancer Stem Cells. [Related pubchem assays (depositor defined):AID2717, AID2721]; assay type: functional; details: Homo sapiens
# [3] = target: T1, Mannose-6-phosphate isomerase (Homo sapiens, UniProt P34949); test: inhibitors of human PMI, primary screen, biochemical, fluorescence intensity, coupled assay (AID 1209)
# T1 sequence (P34949 whole entry): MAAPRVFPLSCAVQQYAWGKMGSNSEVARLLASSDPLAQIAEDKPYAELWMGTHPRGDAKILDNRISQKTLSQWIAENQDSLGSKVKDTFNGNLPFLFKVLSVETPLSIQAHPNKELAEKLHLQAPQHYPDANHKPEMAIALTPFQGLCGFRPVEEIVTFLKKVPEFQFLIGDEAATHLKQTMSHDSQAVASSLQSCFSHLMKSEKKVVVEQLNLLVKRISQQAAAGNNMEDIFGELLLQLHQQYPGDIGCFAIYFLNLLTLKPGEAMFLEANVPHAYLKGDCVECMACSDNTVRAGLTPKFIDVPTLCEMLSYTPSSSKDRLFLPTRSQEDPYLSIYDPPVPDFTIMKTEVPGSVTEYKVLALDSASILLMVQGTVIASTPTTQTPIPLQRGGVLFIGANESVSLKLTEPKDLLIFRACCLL
# INS1 = test: beta cell apoptosis inhibitors, cytokine rescue, dose response, luminescence, retest (AID 449756); assay type: functional, cell-based; details: Rattus norvegicus;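 further: cell death triggered by IL-1 beta plus TNF-alpha plus IFN-gamma mixture; protective hits raise ATP signal compared with cytokine alone wells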
# [4] = cytotoxicity toward NIH3T3 fibroblasts, dose response, counter-screen, cell-based, ATP luminescence, mouse fibroblasts (AID 2010); assay type: functional;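 further: cells exposed to compound for about 90 hours before reading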
# [5] = target: T2, High affinity choline transporter 1 (Homo sapiens, UniProt Q9GZV3); test: CHT inhibitors, dose response, cell-based, 5-point CRC, membrane potential dye (AID 504840); assay type: functional
# T2 sequence (Q9GZV3 whole entry): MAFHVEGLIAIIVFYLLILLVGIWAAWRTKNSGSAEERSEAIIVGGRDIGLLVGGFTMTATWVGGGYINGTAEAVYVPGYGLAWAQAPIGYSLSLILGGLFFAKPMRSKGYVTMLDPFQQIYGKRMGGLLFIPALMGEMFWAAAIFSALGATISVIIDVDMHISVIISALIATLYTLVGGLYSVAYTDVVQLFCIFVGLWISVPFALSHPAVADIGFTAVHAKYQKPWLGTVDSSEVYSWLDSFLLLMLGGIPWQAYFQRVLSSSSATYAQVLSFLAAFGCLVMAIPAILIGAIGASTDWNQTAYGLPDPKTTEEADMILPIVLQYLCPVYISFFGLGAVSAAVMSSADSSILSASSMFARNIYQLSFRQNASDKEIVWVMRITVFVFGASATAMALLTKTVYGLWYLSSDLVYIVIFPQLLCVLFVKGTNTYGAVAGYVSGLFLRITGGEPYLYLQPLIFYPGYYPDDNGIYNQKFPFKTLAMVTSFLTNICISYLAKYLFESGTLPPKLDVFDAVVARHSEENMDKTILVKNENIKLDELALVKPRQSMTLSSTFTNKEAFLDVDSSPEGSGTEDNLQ
# [6] = target: Aryl hydrocarbon receptor (Homo sapiens, UniProt P35869); test: Luminescence-based cell-based high throughput dose response assay for activators of the Aryl Hydrocarbon Receptor (AHR). [Related pubchem assays: 2796 (Primary screen (AHR activators in singlicate)), 2845 (Confirmation screen (AHR activators in triplicate)), 434939 (Counterscreen (PXR activators in triplicate)), 2804 (Summary (AHR activators))]; assay type: ADME
# Bcl-2-related protein A1 = target: T3, Bcl-2-related protein A1 (Mus musculus, UniProt Q07440); assay type: functional;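 further: confirmatory dose–response counterscreen on Bfl-1, used to check hits from a UBC13 polyubiquitin inhibitor campaign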
# T3 sequence (Q07440 whole entry): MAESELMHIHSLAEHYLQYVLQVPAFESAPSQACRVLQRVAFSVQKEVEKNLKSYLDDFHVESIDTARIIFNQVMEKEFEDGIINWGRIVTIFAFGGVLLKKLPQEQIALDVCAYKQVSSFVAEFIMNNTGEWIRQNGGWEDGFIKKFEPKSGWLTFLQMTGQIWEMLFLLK
# Genome polyprotein = Genome polyprotein (dengue virus type 2, UniProt P29990); test: Dengue-2 NS5 methyltransferase inhibitors, primary screen, biochemical, confirmation dose response (AID 588689); assay type: functional
# Vero = Vero cell cytotoxicity, cytotoxicity control for flavivirus capping enzyme inhibitors (AID 588742); assay type: functional; details: Chlorocebus sabaeus
# [7] = control 3'UTR Renilla luciferase suppression, dose response, counter-screen for Shn3 inhibitor project, cell-based, Clone20-Shn3RL, cherry-picked (AID 624133); assay type: functional
# [8] = HepG2 cell cytotoxicity, dose response, cytotoxicity control for Shn3 inhibitor project, CellTiter-Glo, cherry-picked (AID 624134); assay type: functional, cell-based
# [9] = Shn3 3'UTR reporter inhibitors, dose response, cell-based, Clone20 osteoblasts, firefly luciferase, cherry-picked (AID 624132); assay type: functional;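 further: firefly luciferase luminescence from reporter carrying the Shn3 3'UTR in osteoblasts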
# [10] = target: T4, Ubiquitin-conjugating enzyme E2 N (Homo sapiens, UniProt P61088); assay type: functional
# T4 sequence (P61088 whole entry): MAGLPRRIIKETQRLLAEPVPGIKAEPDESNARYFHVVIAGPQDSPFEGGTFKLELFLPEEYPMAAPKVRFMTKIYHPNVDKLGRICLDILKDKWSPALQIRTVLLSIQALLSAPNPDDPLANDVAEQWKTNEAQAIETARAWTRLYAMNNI
# [11] = target: ATP-binding cassette sub-family B member 6 (Homo sapiens, UniProt Q9NP58); test: ABCB6 transporter inhibitors, porphyrin accumulation, dose response, flow cytometry, K562-ABCB6 cells, cherry pick 02 (AID 624487); assay type: functional; details: read-out: EC50_MICROM
# Protein RecA = target: T5, Protein RecA (Mycobacterium tuberculosis, UniProt P9WHJ3); test: Fluorescence Cell-Free Homogeneous Dose Retest to Identify Inhibitors of RecA-Intein Splicing Activity. [Related pubchem assays (depositor defined):AID2097, AID2223, AID489010, AID492950]; assay type: functional
# T5 sequence (P9WHJ3 whole entry): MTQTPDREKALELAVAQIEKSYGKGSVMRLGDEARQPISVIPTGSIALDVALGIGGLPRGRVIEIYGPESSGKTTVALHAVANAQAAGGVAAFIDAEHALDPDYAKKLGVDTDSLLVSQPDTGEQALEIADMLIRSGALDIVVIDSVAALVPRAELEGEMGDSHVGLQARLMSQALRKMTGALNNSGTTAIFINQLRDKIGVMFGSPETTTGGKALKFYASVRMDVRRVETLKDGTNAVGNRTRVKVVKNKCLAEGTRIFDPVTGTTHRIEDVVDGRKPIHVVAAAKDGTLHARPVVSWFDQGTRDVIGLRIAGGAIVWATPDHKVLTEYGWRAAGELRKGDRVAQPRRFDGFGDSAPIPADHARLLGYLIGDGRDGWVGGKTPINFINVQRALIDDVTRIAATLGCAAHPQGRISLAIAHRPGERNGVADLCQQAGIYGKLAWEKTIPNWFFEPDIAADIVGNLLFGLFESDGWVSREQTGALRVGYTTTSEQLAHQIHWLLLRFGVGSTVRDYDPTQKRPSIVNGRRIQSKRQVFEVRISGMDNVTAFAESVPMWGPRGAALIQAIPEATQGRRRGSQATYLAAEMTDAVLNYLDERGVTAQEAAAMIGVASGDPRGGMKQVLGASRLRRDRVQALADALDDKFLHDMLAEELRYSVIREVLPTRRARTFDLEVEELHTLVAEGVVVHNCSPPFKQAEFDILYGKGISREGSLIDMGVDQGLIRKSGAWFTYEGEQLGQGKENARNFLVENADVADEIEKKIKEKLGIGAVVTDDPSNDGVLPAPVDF
# [12] = target: T6, Hepatocyte nuclear factor 4-alpha (Homo sapiens, UniProt P41235); assay type: functional, cell-based;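 further: biochemical luminescence-based dose-response counterscreen measuring inhibition of HNF4 dimerization, run alongside a screen for blockers of ABHD5–perilipin-5 interaction; split luciferase complementation of HNF4 fusion proteins in cell lysate measuring dimerization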
# T6 sequence (P41235 whole entry): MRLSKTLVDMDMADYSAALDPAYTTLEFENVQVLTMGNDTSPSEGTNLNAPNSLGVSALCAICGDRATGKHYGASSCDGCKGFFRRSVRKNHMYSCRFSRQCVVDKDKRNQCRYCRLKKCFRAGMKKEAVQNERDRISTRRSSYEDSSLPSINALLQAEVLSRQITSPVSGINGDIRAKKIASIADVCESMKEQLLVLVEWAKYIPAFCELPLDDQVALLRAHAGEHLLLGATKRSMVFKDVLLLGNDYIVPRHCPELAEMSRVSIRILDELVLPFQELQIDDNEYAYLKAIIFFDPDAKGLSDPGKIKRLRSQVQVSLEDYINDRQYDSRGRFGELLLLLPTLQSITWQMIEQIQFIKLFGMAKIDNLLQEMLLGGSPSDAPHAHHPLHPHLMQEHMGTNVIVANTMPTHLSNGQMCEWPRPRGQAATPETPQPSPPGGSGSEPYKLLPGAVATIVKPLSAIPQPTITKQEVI
# [13] = target: Potassium voltage-gated channel subfamily KQT member 2 (Rattus norvegicus, UniProt O88943, W236L); test: KCNQ2 channel potentiators, dose response, mechanism study for KCNQ2 potentiator project, cell-based, automated electrophysiology (AID 2603); assay type: functional
# [14] = target: T4, Ubiquitin-conjugating enzyme E2 N; assay type: functional; remark: listed apart in the source
# [15] = target: T2, High affinity choline transporter 1; test: CHT inhibitors, dose response, cell-based, 10-point CRC, membrane potential dye (AID 588401); assay type: functional;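 further: membrane potential dye fluorescence of choline-evoked depolarization via CHT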
# [16] = M. tuberculosis H37Rv growth inhibitors, H37Rv strain (AID 1626); assay type: functional
# NADPH oxidase 1 = NADPH oxidase 1 (Homo sapiens, UniProt Q9Y5S8); assay type: functional, cell-based;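 further: Cell-based assay with luminescence read-out, IC50 derived from inhibitor dose-response curves; intracellular ROS from endogenous NOX1 in intact HT29 colon cancer cells; potency of inhibitors that lower the ROS luminescence signal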
# [17] = target: T7, Carboxy-terminal domain RNA polymerase II polypeptide A small phosphatase 1 (Homo sapiens, UniProt Q9GZU7); test: inhibitors of CTDSP1, concentration-response testing, biochemical assay, absorbance-based, actives from ultra-high-throughput screening (AID 540297); assay type: functional
# T7 sequence (Q9GZU7 whole entry): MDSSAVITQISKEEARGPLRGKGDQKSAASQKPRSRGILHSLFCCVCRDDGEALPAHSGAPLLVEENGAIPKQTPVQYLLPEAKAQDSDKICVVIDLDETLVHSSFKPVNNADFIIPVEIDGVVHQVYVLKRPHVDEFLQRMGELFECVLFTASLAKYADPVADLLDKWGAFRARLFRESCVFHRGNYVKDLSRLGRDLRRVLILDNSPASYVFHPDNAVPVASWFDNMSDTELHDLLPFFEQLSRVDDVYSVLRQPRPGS
# Estrogen receptor beta [18] = target: T8, Estrogen receptor beta (Homo sapiens, UniProt Q92731); test: ERβ–SRC-3 coactivator interaction inhibitors, confirmation, orthogonal assay, biochemical, ELISA, streptavidin-HRP readout (AID 1060)
# Estrogen receptor beta [19] = target: T8, Estrogen receptor beta
# [20] = inhibitors of Vif binding to APOBEC3G peptide, primary screen, biochemical, TR-FRET, GST-Vif 1-94, biotin-A3G peptide, dose response retest (AID 1117319); assay type: functional;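 further: TR-FRET signal of purified GST-Vif binding a biotinylated A3G peptide; inhibitors lower the FRET signal by blocking Vif and A3G binding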
# Estrogen receptor = target: T9, Estrogen receptor (Homo sapiens, UniProt P03372); test: potentiators of ERα–SRC-1 coactivator binding, dose response, biochemical, TR-FRET, ERα LBD (AID 737)
# T9 sequence (P03372 whole entry): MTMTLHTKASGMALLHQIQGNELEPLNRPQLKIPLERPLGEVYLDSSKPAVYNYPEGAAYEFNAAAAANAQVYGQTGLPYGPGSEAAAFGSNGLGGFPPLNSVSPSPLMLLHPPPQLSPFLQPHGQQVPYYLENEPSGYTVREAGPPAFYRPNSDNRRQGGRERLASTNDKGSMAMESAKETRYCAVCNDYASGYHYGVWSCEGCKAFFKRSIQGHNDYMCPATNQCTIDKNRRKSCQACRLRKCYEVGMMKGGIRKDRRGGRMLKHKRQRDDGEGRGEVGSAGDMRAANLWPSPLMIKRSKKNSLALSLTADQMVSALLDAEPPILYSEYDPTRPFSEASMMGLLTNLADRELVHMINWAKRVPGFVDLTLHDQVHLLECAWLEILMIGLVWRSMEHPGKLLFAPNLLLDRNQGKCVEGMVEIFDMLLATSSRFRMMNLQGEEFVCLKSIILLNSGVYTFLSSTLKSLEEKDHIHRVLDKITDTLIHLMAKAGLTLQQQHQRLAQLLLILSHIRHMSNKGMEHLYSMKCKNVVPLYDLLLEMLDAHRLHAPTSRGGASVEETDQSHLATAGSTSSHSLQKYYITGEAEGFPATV
# T8 sequence (Q92731 whole entry): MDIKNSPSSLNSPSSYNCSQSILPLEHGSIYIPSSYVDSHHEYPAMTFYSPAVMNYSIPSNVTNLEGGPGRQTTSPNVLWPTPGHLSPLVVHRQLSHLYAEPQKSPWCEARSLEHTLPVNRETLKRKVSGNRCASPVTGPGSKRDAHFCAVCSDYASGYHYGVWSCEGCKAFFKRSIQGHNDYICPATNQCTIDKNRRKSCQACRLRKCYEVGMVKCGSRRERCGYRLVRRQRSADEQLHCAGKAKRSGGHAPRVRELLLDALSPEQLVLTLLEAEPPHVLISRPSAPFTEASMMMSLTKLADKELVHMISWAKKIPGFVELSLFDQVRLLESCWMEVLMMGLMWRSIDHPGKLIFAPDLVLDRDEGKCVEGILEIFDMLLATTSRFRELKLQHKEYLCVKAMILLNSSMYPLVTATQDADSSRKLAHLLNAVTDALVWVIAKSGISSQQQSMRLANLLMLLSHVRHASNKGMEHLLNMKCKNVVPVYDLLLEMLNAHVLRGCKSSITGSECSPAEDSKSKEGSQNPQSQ
# Chain of Genome polyprotein (P29990 2492-3391 limits assumed): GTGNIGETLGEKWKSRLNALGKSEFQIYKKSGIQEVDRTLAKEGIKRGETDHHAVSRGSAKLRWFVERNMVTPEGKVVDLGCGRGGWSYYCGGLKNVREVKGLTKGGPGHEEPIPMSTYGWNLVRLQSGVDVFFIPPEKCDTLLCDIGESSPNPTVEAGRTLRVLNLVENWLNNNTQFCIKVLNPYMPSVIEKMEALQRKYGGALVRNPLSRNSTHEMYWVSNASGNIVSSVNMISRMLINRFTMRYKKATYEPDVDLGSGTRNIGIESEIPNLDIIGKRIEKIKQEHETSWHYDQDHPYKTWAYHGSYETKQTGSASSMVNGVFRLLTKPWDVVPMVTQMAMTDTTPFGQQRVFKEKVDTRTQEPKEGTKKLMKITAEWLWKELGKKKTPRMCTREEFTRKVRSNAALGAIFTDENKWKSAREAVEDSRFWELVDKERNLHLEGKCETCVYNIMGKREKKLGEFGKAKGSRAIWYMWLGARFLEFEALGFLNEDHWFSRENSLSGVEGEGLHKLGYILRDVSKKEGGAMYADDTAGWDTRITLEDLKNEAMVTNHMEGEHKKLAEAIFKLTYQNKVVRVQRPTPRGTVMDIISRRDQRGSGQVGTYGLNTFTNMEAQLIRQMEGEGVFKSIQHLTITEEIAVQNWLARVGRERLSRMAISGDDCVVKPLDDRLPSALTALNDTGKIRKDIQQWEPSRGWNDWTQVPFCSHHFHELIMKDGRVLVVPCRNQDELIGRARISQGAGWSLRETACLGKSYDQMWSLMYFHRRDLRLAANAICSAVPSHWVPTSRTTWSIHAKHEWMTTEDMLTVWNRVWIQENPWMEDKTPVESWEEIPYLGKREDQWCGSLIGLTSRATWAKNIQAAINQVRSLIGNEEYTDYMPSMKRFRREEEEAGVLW
# Chain of Aryl hydrocarbon receptor (P35869 whole entry): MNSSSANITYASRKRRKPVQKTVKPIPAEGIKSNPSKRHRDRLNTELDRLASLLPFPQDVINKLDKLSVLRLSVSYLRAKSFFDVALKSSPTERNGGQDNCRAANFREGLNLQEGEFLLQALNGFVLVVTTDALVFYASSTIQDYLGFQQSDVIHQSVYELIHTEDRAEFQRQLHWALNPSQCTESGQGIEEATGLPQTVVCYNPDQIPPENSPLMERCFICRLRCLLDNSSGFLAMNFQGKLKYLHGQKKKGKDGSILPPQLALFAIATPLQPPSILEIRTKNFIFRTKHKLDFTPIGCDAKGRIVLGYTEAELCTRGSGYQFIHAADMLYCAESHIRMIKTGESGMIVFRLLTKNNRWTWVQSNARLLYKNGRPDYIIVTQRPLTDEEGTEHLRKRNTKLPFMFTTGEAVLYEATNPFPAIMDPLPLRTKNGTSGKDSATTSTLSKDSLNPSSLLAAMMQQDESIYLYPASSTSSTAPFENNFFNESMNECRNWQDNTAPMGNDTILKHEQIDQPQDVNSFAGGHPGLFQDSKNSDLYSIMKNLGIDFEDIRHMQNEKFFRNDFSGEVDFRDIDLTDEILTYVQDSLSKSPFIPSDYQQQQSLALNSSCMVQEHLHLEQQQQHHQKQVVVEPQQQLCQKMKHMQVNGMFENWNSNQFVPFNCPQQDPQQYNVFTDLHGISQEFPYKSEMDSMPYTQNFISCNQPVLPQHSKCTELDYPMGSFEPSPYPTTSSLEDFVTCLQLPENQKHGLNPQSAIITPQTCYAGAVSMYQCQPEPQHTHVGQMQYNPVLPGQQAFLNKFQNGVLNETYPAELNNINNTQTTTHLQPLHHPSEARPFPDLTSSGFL
# Chain of NADPH oxidase 1 (Q9Y5S8 whole entry, the tested form may be a part): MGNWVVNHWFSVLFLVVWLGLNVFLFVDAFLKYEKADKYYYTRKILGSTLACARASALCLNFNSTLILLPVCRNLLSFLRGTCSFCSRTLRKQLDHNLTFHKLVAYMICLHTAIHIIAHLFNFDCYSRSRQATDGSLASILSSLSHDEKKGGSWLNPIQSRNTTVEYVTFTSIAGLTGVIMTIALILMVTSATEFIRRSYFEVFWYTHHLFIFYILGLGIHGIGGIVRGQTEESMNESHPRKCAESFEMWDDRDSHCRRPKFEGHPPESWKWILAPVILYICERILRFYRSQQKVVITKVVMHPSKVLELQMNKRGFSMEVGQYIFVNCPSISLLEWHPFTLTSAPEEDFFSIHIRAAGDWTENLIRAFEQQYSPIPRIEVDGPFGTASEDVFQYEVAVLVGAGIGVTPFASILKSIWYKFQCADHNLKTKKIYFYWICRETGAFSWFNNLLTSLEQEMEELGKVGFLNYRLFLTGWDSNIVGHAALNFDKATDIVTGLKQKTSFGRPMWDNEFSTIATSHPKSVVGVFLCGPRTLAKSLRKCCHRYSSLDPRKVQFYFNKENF
# Chain of Potassium voltage-gated channel subfamily KQT member 2 (O88943 whole entry W236L): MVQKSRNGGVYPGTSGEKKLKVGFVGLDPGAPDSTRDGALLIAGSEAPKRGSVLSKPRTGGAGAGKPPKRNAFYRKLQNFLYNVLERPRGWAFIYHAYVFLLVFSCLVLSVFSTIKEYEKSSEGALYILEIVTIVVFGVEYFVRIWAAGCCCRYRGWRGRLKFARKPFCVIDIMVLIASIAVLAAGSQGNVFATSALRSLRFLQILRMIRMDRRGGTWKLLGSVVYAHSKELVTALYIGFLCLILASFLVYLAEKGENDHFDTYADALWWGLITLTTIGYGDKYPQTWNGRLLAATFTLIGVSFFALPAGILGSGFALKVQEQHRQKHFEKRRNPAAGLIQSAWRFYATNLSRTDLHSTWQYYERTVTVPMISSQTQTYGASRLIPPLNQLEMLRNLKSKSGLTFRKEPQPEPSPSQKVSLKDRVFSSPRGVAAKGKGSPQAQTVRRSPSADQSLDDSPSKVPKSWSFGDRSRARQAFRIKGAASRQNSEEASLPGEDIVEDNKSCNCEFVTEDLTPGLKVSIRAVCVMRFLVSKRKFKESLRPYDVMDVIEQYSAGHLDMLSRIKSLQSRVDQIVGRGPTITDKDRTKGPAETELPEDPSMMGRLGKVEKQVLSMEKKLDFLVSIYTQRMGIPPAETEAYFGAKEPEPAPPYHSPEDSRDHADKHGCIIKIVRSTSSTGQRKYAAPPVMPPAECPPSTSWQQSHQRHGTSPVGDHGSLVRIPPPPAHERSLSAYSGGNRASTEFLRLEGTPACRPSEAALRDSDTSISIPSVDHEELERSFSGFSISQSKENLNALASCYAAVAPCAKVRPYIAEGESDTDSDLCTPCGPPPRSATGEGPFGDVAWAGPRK
# Chain of ATP-binding cassette sub-family B member 6 (Q9NP58 whole entry): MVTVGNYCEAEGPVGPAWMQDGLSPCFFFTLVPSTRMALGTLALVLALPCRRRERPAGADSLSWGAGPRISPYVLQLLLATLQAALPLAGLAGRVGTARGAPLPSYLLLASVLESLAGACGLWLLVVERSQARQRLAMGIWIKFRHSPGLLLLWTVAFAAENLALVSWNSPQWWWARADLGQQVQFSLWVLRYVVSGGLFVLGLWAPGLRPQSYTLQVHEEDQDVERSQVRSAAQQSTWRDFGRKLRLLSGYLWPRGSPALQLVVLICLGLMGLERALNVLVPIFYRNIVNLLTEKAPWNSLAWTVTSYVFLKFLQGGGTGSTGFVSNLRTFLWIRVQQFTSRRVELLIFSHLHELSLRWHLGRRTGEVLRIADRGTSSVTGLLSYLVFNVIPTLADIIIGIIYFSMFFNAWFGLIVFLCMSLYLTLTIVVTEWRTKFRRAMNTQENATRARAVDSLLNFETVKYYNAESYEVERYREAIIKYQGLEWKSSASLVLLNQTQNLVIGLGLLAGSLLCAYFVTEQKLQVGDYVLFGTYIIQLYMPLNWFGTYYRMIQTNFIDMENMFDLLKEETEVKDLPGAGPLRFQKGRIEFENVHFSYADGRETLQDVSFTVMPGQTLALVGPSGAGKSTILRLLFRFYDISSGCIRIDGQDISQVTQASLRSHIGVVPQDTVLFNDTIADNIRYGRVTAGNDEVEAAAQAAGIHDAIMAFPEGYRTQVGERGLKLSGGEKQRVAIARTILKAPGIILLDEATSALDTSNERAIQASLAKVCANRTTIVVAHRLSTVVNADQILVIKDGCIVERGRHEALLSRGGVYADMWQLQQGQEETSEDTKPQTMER
structure (smiles),measurement,setting,value
CC1=[N+](C)c2ccc3ccccc3c2C1(C)C,EC50,[1],2.83 µM (active)
same,AC50,[2],27.4 µM (active)
same,IC50,[3],> 50 µM (not active)
same,AC50,INS1,6.8 µM (active)
same,EC50,[4],> 60 µM (not active)
Cc1ccc[n+](CC(=O)c2ccc(Br)cc2)c1C,IC50,[5],13.8 µM (active)
same,EC50,[6],6.77 µM (active)
CCCc1nnc(NC(=O)c2nc(S(=O)(=O)Cc3cccc(C)c3)ncc2Cl)s1,IC50,Bcl-2-related protein A1,> 20 µM (inactive)
same,IC50,Genome polyprotein,> 100 µM (active)
same,CC50,Vero,> 40 µM (active)
same,AC50,[7],10 µM (active)
same,AC50,[8],> 70 µM (inactive)
same,AC50,[9],2.55 µM (active)
same,IC50,[10],12.3 µM (active)
same,EC50,[11],60.6 µM (active)
same,IC50,[5],3.9 µM (active)
same,EC50,Protein RecA,> 380 µM (inactive)
same,IC50,[12],5.71 µM (active)
same,EC50,[13],2.89 µM (active)
same,IC50,[14],> 20 µM (inactive)
same,IC50,[15],3.16 µM (active)
O=C(O)/C=C/C(=O)Nc1ccc(-n2nccc2C(F)(F)F)cc1,IC50,[16],> 100 µM (active)
O=[N+]([O-])c1ccccc1-c1nc(-c2ccccc2)c(-c2ccccc2)[nH]1,IC50,NADPH oxidase 1,> 17 µM (not active)
O=C(CCC1CCCN(Cc2ccc3c(c2)OCCO3)C1)NCc1ccc(F)c(F)c1 (stereo unspecified),EC50,cells,0.033 µM (active)
same,EC50,[1],< 0.1 µM (active)
same,EC50,[4],> 60 µM (not active)
CCCCN(CCCC)S(=O)(=O)c1ccc(NC(=O)Cc2cccs2)cc1,IC50,[17],7.14 µM (active)
same,IC50,Estrogen receptor beta [18],1.05 µM (not active)
same,IC50,Estrogen receptor beta [19],18.8 µM (active)
same,IC50,[20],> 100 µM (active)
Cc1nn(-c2ccc(Cl)cc2)c2sc(C(=O)N3CCN(c4ccccn4)CC3)cc12,EC50,Estrogen receptor,12.8 µM (active)
